Target: ABCB1 (P-glycoprotein) (Homo sapiens, UniProt P08183)
Assay: ABCB1 ATPase stimulation in plasma membrane vesicles
Type: biochemical

Chain of ABCB1 (P-glycoprotein) (P08183 whole entry): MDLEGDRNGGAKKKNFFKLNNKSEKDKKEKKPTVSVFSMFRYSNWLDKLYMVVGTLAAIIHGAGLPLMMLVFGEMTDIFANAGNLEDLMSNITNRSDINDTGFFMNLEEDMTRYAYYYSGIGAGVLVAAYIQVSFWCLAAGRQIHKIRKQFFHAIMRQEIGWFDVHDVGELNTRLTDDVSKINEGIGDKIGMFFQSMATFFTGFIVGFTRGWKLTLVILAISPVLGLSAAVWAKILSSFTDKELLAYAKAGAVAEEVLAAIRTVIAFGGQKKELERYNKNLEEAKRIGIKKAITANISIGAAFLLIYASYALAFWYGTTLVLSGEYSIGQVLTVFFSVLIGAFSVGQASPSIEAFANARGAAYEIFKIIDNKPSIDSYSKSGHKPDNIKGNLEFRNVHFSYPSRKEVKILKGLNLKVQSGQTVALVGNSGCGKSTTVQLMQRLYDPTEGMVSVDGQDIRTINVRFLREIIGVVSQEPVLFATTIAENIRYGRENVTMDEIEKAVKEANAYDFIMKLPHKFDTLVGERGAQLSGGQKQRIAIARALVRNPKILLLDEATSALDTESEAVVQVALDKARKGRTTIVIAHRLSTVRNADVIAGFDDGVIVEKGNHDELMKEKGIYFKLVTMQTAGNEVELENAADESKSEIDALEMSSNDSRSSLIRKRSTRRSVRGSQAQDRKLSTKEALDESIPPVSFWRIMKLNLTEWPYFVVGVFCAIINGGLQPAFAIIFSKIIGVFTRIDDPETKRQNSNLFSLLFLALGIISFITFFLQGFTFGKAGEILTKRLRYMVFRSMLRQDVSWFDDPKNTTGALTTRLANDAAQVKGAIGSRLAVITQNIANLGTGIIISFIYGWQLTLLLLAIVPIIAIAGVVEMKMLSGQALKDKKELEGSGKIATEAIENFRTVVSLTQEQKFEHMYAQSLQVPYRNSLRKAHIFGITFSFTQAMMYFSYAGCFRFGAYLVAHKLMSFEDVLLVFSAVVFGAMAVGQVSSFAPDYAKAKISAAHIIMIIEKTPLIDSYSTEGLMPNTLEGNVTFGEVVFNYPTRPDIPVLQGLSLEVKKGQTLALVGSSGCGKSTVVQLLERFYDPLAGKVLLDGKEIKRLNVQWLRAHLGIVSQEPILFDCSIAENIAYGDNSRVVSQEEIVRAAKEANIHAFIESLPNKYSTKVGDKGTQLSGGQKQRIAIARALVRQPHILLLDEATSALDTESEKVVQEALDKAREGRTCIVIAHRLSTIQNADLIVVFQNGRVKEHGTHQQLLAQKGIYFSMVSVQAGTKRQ

With `[La+3].c1cnc2c(c1)ccc1cccnc12.c1cnc2c(c1)ccc1cccnc12.c1cnc2c(c1)ccc1cccnc12` [KP772, [tris(1,10-phenanthroline)lanthanum(III)] trithiocyanate] as the compound, how does the EC50 read?
The EC50 was greater than 100 µM.
